Patent publication US8735363B2, “Preparation and application of heparin silver” (priority 2005, dated 2014)

Columns and labels:
[1] = tested on: deep second degree scald wound surface; assay: Animal model of burn (deep second degree steam scald); type: in vivo, Rats
Method: After rats were wounded, samples were taken at intervals of time. The wet weight of wound surface tissue (Ga) and the tissue dry weight (Gb) after baking at 80° C. for 72 hours were measured by weighting method. The water content of wound surface was calculated as W=(Ga−Gb)/Ga×100%, wherein W represented the degree of edema.

[2] = tested on: hyperplastic scar wound surface; assay: Animal model of hyperplastic scar (excised whole-thickness skin wound); type: in vivo, New-Zealand rabbit
Method: The scar tissue was subjected to Masson staining and observed under light microscope, and the thickness of dermis (Da) of wound surface after epithelization and the thickness of dermis (Db) of adjacent normal tissue were measured.

heparin silver
Water content of wound surface (W) ([1]; 8 h after wounding, W=(Ga−Gb)/Ga×100%, degree of edema): 80.25 ± 2.78 (n = 6) % | Water content of wound surface (W) ([1]; 24 h after wounding): 70.82 ± 3.56 (n = 6) % | Hydroxyproline content of wound surface ([1]; 1 d after wounding, chloramine T oxidization method): 18.55 ± 2.13 (n = 5) ug/mL | Hydroxyproline content of wound surface ([1]; 2 d after wounding): 20.45 ± 2.12 (n = 5) ug/mL | Water content of wound surface (W) ([1]; 48 h after wounding): 70.16 ± 2.64 (n = 6) % | Hydroxyproline content of wound surface ([1]; 3 d after wounding): 22.04 ± 1.35 (n = 5) ug/mL | Water content of wound surface (W) ([1]; 72 h after wounding): 68.44 ± 1.32 (n = 5) % | Hydroxyproline content of wound surface ([1]; 5 d after wounding): 23.27 ± 2.11 (n = 6) ug/mL | Water content of wound surface (W) ([1]; 5 d after wounding): 67.61 ± 2.85 (n = 5) % | Hydroxyproline content of wound surface ([1]; 7 d after wounding): 23.96 ± 2.54 (n = 6) ug/mL | Water content of wound surface (W) ([1]; 7 d after wounding): 67.52 ± 1.36 (n = 5) % | Hydroxyproline content of wound surface ([1]; 10 d after wounding): 26.87 ± 2.36 (n = 6) ug/mL | Hydroxyproline content of wound surface ([1]; 14 d after wounding): 26.91 ± 2.14 (n = 6) ug/mL | Hydroxyproline content of wound surface ([1]; 21 d after wounding): 24.05 ± 1.74 (n = 7) ug/mL | Healing Time (d) ([1]; rat 20% area deep second degree scald, powder dressing 0.5-1 mm changed once per day): 21.5 ± 2.2 (n = 8) d | effect in the treatment of burns and/or scalds (animal test) ([1]; summary statement): accelerating healing speed, reducing occurrence of infection and inflammation, and improving healing quality of wound surface | Scar index, 60 days ([2]; 60 days, scar index = (Da−Db)/Db, dermis thickness, Masson staining): 2.06 ± 0.83 (n = 6) | Scar index, 180 days ([2]; 180 days, scar index = (Da−Db)/Db, dermis thickness, Masson staining): 1.85 ± 0.52 (n = 6) | Healing time of wound surface (days) ([2]; rabbit 2 cm×5 cm excision wound, dressing with powder changed once per week, healed = scab less than 5% of wound area): 21.4 ± 2.16 (n = 6) days
